GI50 and TGI data for 7 compounds are collected here from PubChem BioAssay (NCI).

Each structure is given as a SMILES string.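 The compound was tested at five concentrations on cells cultured in 96-well plates, with a 48-hour exposure period. Here, GI50 denotes the concentration required for 50% inhibition of growth. Definition used: TGI = concentration required for complete inhibition of growth.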

Usually GI50 stands for the concentration giving 50% growth inhibition. As a reminder, the TGI is the concentration at which net growth stops. Read a low TGI as more potent growth arrest.

Some test systems named below: COLO 205 colon; DLD-1 colon; HCC-2998 colon; HCT-116 colon; HL-60(TB) leukemia; KM20L2 colon; LXFL 529 NSCLC; M19-MEL melanoma; MDA-MB-435; UO-31 renal.
What all share (test): DTP human tumour cell line panel, 48 h

Consider `O=S(=O)([O-])c1ccc2c(c1)-c1nc-2nc2[n-]c(nc3nc(nc4[n-]c(n1)c1ccc(S(=O)(=O)[O-])cc41)-c1cc(S(=O)(=O)[O-])ccc1-3)c1ccc(S(=O)(=O)[O-])cc21.[Cu+2].[Na+]`, for which the GI50 was 6.96 µM in the assay on COLO 205 colon; 7.65 µM with DLD-1 colon; over 100 µM in the assay with HCC-2998 colon; 15.8 µM with HCT-116 colon; 0.174 µM in the assay on HL-60(TB) leukemia; 2.35 µM in the assay with KM20L2 colon. For the same compound, the GI50 with LXFL 529 NSCLC was 26.5 µM; in the assay on M19-MEL melanoma it was 6.21 µM; in the assay on MDA-MB-435, over 100 µM; in the assay with UO-31 renal, over 39.6 µM. The TGI in the assay with COLO 205 colon is over 62 µM; with DLD-1 colon, over 100 µM; with HCC-2998 colon, over 100 µM; in the assay on HCT-116 colon, over 100 µM; in the assay on HL-60(TB) leukemia, over 17.7 µM; in the assay on KM20L2 colon, over 100 µM. Moreover, the TGI with LXFL 529 NSCLC was over 100 µM; in the assay on M19-MEL melanoma it was over 100 µM; in the assay on MDA-MB-435, over 100 µM; in the assay on UO-31 renal it was over 93.9 µM.
Regarding `O=c1nc2occc2cn1C1CC(O)C(CO)O1` (centres undefined), the TGI with COLO 205 colon, in the assay with DLD-1 colon, with HCC-2998 colon, with HCT-116 colon, in the assay on HL-60(TB) leukemia and in the assay with KM20L2 colon was over 100 µM each time. In addition, the TGI in the assay with LXFL 529 NSCLC, with M19-MEL melanoma and in the assay on UO-31 renal was over 100 µM in each case.
In the case of `COC(=O)C12C3C4C1C1C2C3C41C(=O)OC(C)(C)C` (centres undefined), the TGI in the assay with COLO 205 colon was over 100 µM; with DLD-1 colon it was over 72.3 µM; in the assay on HCC-2998 colon, over 100 µM; in the assay with HCT-116 colon, 70.3 µM; in the assay with HL-60(TB) leukemia, over 100 µM; with KM20L2 colon, over 100 µM. In addition, the TGI in the assay with LXFL 529 NSCLC, in the assay with M19-MEL melanoma and in the assay on UO-31 renal was over 100 µM throughout.
For the compound `CNC(=S)NC1CCCCC1NC(=S)NC` (centres undefined), the TGI with COLO 205 colon, in the assay with DLD-1 colon, with HCC-2998 colon, with HCT-116 colon, in the assay with HL-60(TB) leukemia and with KM20L2 colon was over 100 µM in each case. The TGI in the assay with LXFL 529 NSCLC, with M19-MEL melanoma and in the assay on UO-31 renal was over 100 µM throughout.
`CC1OC(n2cc(F)c(=O)[nH]c2=O)C=CC1O` (centres undefined): the TGI in the assay with COLO 205 colon, in the assay with DLD-1 colon, in the assay with HCC-2998 colon, with HCT-116 colon, in the assay with HL-60(TB) leukemia and with KM20L2 colon was over 100 µM in each case. The TGI in the assay with LXFL 529 NSCLC, in the assay with M19-MEL melanoma and in the assay with UO-31 renal was over 100 µM in each case.
Regarding `CCN(CC)CCOc1ccc(/C=C(\C#N)c2ccc(OCCN(CC)CC)cc2)cc1`, the TGI in the assay with COLO 205 colon is 23 µM; in the assay with DLD-1 colon, over 83.3 µM; with HCC-2998 colon, 32.3 µM; with HCT-116 colon it was 21.9 µM; in the assay on HL-60(TB) leukemia, 38.2 µM; in the assay on KM20L2 colon, 4.5 µM. Further, the results for the TGI in the assay on LXFL 529 NSCLC, in the assay with M19-MEL melanoma and in the assay with UO-31 renal were 41.3 µM, 28.9 µM and 31.2 µM, respectively.
Take `Cc1cc(Br)cc(C)c1NC(=O)C(=O)C(C(=O)c1ccc2ccccc2c1)C1OC(=O)c2ccccc21` (centres undefined): the TGI with COLO 205 colon was found to be 50.9 µM; in the assay with DLD-1 colon it was 34.2 µM; in the assay with HCC-2998 colon, 24.7 µM; in the assay on HCT-116 colon, 29.4 µM; with HL-60(TB) leukemia, 30.2 µM; in the assay with KM20L2 colon, 38.7 µM. For the same compound, the TGI in the assay with LXFL 529 NSCLC amounted to 22.3 µM; in the assay on M19-MEL melanoma, 46.3 µM; in the assay on UO-31 renal, 30.3 µM.
